Measured values reported in patent US20250344734A1, “UNSATURATED FATTY ACIDS AND THEIR USE TO MODIFY TASTE” (Firmenich Incorporated, priority 2022, published 2025).

Key:
Format in all cases: cell-based
Conditions in all cases: unsaturated fatty acid concentration of 200 µM, cells stimulated with known bitter agonist
T2R03 (TAS2R03) = biological target: T1, T2R03 (TAS2R03) (Homo sapiens, UniProt Q9NYW6); experiment: FLIPR calcium assay, block of bitter agonist response, T2R03
T1 construct: expressed in transfected cells; host or cells: cells expressing a promiscuous G protein (e.g., G16g44)
T1 sequence (Q9NYW6 1-316): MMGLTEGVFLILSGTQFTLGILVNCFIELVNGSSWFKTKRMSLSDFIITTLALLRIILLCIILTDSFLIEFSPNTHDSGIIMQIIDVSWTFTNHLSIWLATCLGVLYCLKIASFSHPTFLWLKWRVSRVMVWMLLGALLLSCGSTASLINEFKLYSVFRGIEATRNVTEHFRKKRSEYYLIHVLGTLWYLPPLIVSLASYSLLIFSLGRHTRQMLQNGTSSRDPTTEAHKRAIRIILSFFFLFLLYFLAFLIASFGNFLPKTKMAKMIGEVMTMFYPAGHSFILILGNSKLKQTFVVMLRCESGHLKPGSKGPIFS
Protocol: (§1) Cells expressing a promiscuous […] (e.g., G16g44) were transfected with vectors encoding 18 functional bitter receptor cDNAs, with one receptor per transfection. The cells were transfected directly in 384-well format high-density plates and incubated for 28 hours. Later, cells were loaded with the Ca-specific dye Fluo4-AM. After an incubation of 60 minutes, excess dye is washed off, and cells are stimulated with a known bitter agonist for each receptor and various unsaturated fatty acids. Changes in intracellular fluorescence are recorded using a FLIPR instrument. Bitter antagonists and corresponding receptors are identified based on percentage inhibition of agonist's activity on a given receptor.
(§2) The above protocol was carried out using 16 different unsaturated fatty acids. A particular T2R receptor was identified as being antagonized by a particular unsaturated fatty acid if it triggered a >25% block of agonist's cellular response at 200 μM concentration of unsaturated fatty acid. […] Table 2 indicates the sixteen (16) compounds tested by their compound number from Table 1 above. The 18 bitter taste receptors screened are the human bitter taste receptors we named. […]

T2R04 (TAS2R04) = biological target: T2, T2R04 (TAS2R04) (Homo sapiens, UniProt Q9NYW5); experiment: FLIPR calcium assay, block of bitter agonist response, T2R04
T2 construct: expressed in transfected cells; host or cells: cells expressing a promiscuous G protein (e.g., G16g44)
T2 sequence (Q9NYW5 1-299): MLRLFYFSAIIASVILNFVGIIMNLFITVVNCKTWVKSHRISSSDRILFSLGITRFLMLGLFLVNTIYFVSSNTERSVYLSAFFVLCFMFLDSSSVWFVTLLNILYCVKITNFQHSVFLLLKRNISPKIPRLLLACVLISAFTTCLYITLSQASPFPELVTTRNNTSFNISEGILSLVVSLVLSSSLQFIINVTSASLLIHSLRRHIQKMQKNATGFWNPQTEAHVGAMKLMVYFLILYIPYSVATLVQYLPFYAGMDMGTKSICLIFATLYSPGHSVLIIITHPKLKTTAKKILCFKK
Protocol: as §1, §2

T2R13 (TAS2R13) = biological target: T3, T2R13 (TAS2R13) (Homo sapiens, UniProt Q9NYV9); experiment: FLIPR calcium assay, block of bitter agonist response, T2R13
T3 construct: expressed in transfected cells; host or cells: cells expressing a promiscuous G protein (e.g., G16g44)
T3 sequence (Q9NYV9 1-303): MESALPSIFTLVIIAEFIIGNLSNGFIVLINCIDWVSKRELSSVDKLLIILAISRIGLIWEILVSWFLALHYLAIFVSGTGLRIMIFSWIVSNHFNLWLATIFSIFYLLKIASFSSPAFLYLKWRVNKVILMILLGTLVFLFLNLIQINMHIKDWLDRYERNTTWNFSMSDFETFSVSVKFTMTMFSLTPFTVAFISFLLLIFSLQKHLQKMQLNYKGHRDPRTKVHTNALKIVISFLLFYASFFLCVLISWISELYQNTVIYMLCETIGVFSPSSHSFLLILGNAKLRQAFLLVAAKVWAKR
Protocol: as §1, §2

T2R16 (TAS2R16) = biological target: T4, T2R16 (TAS2R16) (Homo sapiens, UniProt Q9NYV7); experiment: FLIPR calcium assay, block of bitter agonist response, T2R16
T4 construct: expressed in transfected cells; host or cells: cells expressing a promiscuous G protein (e.g., G16g44)
T4 sequence (Q9NYV7 1-291): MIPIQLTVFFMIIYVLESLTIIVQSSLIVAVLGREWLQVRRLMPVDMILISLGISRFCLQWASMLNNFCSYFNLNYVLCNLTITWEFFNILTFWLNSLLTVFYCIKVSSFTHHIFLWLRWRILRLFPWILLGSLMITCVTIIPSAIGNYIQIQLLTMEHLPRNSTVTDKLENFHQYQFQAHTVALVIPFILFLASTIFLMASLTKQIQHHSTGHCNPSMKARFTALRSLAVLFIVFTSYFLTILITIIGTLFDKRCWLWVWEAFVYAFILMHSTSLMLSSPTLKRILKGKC
Protocol: as §1, §2

T2R61 (TAS2R43) = biological target: T5, T2R61 (TAS2R43) (Homo sapiens, UniProt P59537); experiment: FLIPR calcium assay, block of bitter agonist response, T2R61
T5 construct: expressed in transfected cells; host or cells: cells expressing a promiscuous G protein (e.g., G16g44)
T5 sequence (P59537 1-309): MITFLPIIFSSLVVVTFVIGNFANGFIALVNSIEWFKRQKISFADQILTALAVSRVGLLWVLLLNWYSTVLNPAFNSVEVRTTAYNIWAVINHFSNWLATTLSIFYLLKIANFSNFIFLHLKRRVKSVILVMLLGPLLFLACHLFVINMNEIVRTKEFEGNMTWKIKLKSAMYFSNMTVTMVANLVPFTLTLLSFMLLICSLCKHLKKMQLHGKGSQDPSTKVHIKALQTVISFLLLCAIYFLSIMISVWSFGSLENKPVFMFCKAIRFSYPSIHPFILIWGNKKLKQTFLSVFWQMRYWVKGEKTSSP
Protocol: as §1, §2

T2R63 (TA2R20) = biological target: T6, T2R63 (TA2R20) (Homo sapiens, UniProt P59543); experiment: FLIPR calcium assay, block of bitter agonist response, T2R63
T6 construct: expressed in transfected cells; host or cells: cells expressing a promiscuous G protein (e.g., G16g44)
T6 sequence (P59543 1-309): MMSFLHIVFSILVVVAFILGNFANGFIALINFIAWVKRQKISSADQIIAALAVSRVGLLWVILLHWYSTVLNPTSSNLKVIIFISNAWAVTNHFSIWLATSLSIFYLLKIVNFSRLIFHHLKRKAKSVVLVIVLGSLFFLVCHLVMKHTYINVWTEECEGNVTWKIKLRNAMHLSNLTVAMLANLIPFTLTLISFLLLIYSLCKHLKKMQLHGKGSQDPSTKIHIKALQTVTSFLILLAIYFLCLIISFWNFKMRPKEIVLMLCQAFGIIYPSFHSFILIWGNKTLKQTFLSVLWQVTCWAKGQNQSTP
Protocol: as §1, §2

T2R67 (TAS2R50) = biological target: T7, T2R67 (TAS2R50) (Homo sapiens, UniProt P59544); experiment: FLIPR calcium assay, block of bitter agonist response, T2R67
T7 construct: expressed in transfected cells; host or cells: cells expressing a promiscuous G protein (e.g., G16g44)
T7 sequence (P59544 1-299): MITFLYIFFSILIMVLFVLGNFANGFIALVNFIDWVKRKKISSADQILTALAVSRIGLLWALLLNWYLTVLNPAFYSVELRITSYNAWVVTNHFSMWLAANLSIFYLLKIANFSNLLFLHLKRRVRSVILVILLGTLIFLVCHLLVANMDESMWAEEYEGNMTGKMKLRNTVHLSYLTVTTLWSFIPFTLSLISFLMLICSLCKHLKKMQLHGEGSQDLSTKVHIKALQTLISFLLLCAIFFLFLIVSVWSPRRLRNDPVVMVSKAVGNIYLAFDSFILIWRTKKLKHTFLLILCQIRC
Protocol: as §1, §2

T2R71 (TAS2R41) = biological target: T8, T2R71 (TAS2R41) (Homo sapiens, UniProt P59536); experiment: FLIPR calcium assay, block of bitter agonist response, T2R71
T8 construct: expressed in transfected cells; host or cells: cells expressing a promiscuous G protein (e.g., G16g44)
T8 sequence (P59536 1-307): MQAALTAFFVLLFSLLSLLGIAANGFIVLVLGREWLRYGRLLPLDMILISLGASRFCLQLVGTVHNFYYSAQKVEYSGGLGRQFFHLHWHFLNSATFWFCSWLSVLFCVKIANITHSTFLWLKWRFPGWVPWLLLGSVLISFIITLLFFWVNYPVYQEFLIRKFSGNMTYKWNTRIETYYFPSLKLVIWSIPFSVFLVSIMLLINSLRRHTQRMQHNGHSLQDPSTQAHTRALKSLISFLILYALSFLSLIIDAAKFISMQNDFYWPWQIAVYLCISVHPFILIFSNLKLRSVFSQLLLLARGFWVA
Protocol: as §1, §2

Compound: CCCCC/C=C/C(=O)O [Compound 103]
- percentage block of cellular response over baseline, 03 (T2R03 (TAS2R03)): >30%
- percentage block of cellular response over baseline, 04 (T2R04 (TAS2R04)): >99%
- percentage block of cellular response over baseline, 13 (T2R13 (TAS2R13)): >30%
- percentage block of cellular response over baseline, 16 (T2R16 (TAS2R16)): >25%
- percentage block of cellular response over baseline, 61 (T2R61 (TAS2R43)): >85%
- percentage block of cellular response over baseline, 63 (T2R63 (TA2R20)): 30%
- percentage block of cellular response over baseline, 67 (T2R67 (TAS2R50)): 30%
- percentage block of cellular response over baseline, 71 (T2R71 (TAS2R41)): >30%
